Results taken from publication PMC3169566, “Rationally Designed Interfacial Peptides Are Efficient In Vitro Inhibitors of HIV-1 Capsid Assembly with Antiviral Activity” (PLoS ONE, 2011).
Peptide text beside a SMILES is read from it.

What was measured:
[1] = Solubility under the conditions of the NMR experiments; format: physicochemical; details: aqueous buffer, long incubations at a relatively high temperature, 50 mM phosphate buffer pH 7.0, read-out: Concentration at which the peptide remained fully soluble
Procedure: NMR spectra were acquired at 20°C on a Bruker Avance DRX-500 spectrometer (Bruker GmbH, Germany) equipped with a triple resonance probe and z-pulse field gradients. Sodium trimethylsilyl [2,2,3,3-^2H4] propionate (Sigma) was used as the internal chemical shift reference in the homonuclear experiments. All experiments were carried out in 50 mM phosphate buffer pH 7.0. Assignments of the heteronuclear single quantum coherence (HSQC) NMR spectra were those previously obtained for the monomeric CTD [43], [44].
We first analyzed whether the CAC1-derived peptides CAC1C and CAC1M had any tendency to self-associate. […] The hydrodynamic radius (Rh) of the three peptides was similar (Table 1).

[2] = biological target: T1, CTD (C-terminal domain of HIV-1 capsid protein CA) (Human immunodeficiency virus type 1 group M subtype B, UniProt P04591); assay: CTD binding by fluorescence titration; details: 20 µM wild-type dimeric CTD, 25°C, 50 mM phosphate buffer pH 7.0, 1:1 binding isotherm, read-out: CTD-binding K D
T1 construct: CA protein and the isolated CTD (either unlabelled or labelled) were purified as described previously; made in house
Procedure: Spectra were collected on a Cary Eclipse spectrofluorimeter (Varian, CA, USA). A concentration of 20 µM CTD and increasing peptide concentrations were used for titration experiments carried out at 25°C in 50 mM phosphate buffer pH 7.0. Excitation wavelength was 280 nm or 295 nm, and emission fluorescence was collected between 300 nm and 400 nm. The excitation and emission slits were set to 5 nm. The response time was 1 s. The dissociation constant of each complex was calculated by fitting the changes observed either in: (i) the fluorescence intensity at a particular wavelength; or (ii) the value of the average energy <λ> [42] for a fixed CTD concentration versus the concentration of added peptide as described.

HIV-1 capsid protein CA = biological target: T2, HIV-1 capsid protein CA (Human immunodeficiency virus type 1 group M subtype B, UniProt P04591); assay: CA polymerization in vitro (turbidity at 350 nm) with Ficoll-70 crowding agent; format: biochemical; details: 20 µM CA
T2 construct: CA protein and the isolated CTD (either unlabelled or labelled) were purified as described previously; made in house
Procedure: Assembly reactions were carried out as described previously, [53] with some modifications. In general, the polymerization mixtures contained 50 mM sodium phosphate buffer pH 7.4, 2.25 M NaCl, 20 µM CA, and 100 g/l Ficoll-70 (GE HealthCare) as a macromolecular crowding agent. Where indicated, Ficoll-70 was omitted and the final CA concentration was raised to 46 µM. The experiments were initiated by introducing an appropriate volume of a CA solution in 50 mM phosphate buffer into a spectrophotometer cuvette (10-mm pathlength, 20 mm^2 internal section), and the assembly reaction was triggered by adding the appropriate volume of a solution containing 4 M NaCl, 179 g/l Ficoll-70 in 50 mM sodium phosphate buffer pH 7.4, to get the final concentrations desired for each component in a final volume of 500 µl, followed by rapid mixing by repeated inversion of the cell. The pH of the final reaction mixture was checked in a test sample. For inhibition assays, CA was mixed with the appropriate amounts of the peptides, and incubated for 30 minutes before triggering the reaction as indicated above. The time-dependent increase in the optical density at 350 nm as a measure of the light scattered by the assembled particles was monitored at 25°C using a UV-1603 spectrophotometer (Shimadzu, Japan), with data points collected every six seconds. Traces of the variation in the turbidity were analyzed as described previously, [53].

U87-CD4-CXCR4 cells [3] = assay: Transport of peptides into cells (fluorescence microscopy, flow cytometry); format: cell-based, Human; details: rhodamine-labelled peptides in complex with Chariot 1:1, 3 h at 37°C
Procedure: To transport the peptides into NB324K or U87-CD4-CXCR4 cells a commercial cell-penetrating peptide (Chariot, Active Motif) was used, according to the manufacturer's recommendations. For fluorescence microscopy analyses, Chariot-peptide binding was accomplished by incubating a mixture containing between 5 µg and 50 µg of either FITC-labelled peptide or rhodamine-labelled peptide and the Chariot peptide at a 1∶1 molar ratio in 100 µl aliquots. Each 100 µl aliquot of the preincubated mixture was added to one well of a 24-well plate containing NB324K or U87-CD4-CXCR4 seeded the previous day (5·10^4 and 1.5·10^5 cells/well, respectively) and 100 µl of serum-free DMEM medium were added. The cells were incubated for 1–3 h, 800 µl DMEM containing 10% FBS were added, and incubation was continued for 1 h. Cells were fixed with a 1∶1 methanol∶acetone solution, their nucleus were stained with 4′,6-diamidino-2-phenylindol dihydrochloride (DAPI, Calbiochem), and cells were examined and imaged using an Axiovert200 (Zeiss) fluorescence microscope and/or a LSM-510 (Zeiss) confocal fluorescence microscope.
FITC-labelled peptides were transported into NB324K or U87-CD4-CXCR4 cells as described above. […] The resuspended cells were analyzed in a FACSCalibur flow cytometer (Becton Dickinson, USA).

HIV-1 strain HXB2 = assay: Inhibition of HIV-1 production and infection in cultured cells (p24 antigen); format: cell-based; details: U87-CD4-CXCR4 cells, Chariot-mediated transport
Procedure: U87-CD4-CXCR4 cells from cultured monolayers were collected using 0.25% trypsin and resuspended in DMEM supplemented with 10% FBS (without antibiotics). Cells were seeded in 96-well plates at a density of 3.5×10^4 cells/well and incubated for 24 h. Then, the cells were incubated as described above with mixtures of the corresponding peptides and the Chariot peptide at the appropriate concentrations. After three hours of incubation, the cells were washed with PBS and infected with HIV-1 at a multiplicity of infection of 0.0015 (0.0015 TCID50/cell). After incubation for 2 h at 37°C, the cells were washed with PBS and DMEM supplemented with 10% FBS, 0.5 mg/ml geneticin and 1 µg/ml puromycin were added, and the infected cells were further incubated at 37°C. Viral replication was quantified by measuring HIV-1 CA (p24 antigen) production in the culture supernatant 72 h after infection, using an enzyme-linked immunoassay (INNOTEST HIV-antigen, Innogenetics).

U87-CD4-CXCR4 cells [4] = details: without cell-penetrating peptide; cited from earlier work
[5] = peptide:CA molar ratio of 5, 100 g/l Ficoll-70

Molecule	solubility [1]	Kd [2]	Higher reduction in polymerization rate compared to CAC1 (HIV-1 capsid protein CA; [5])	Higher reduction in total capsid production compared to CAC1 (HIV-1 capsid protein CA; [5])	Chariot-mediated transport of peptides into HIV-1-susceptible cells (U87-CD4-CXCR4 cells [3])	Inhibition of in vitro assembly of HIV-1 capsid-like particles, single inhibitor (HIV-1 capsid protein CA; 100 g/l Ficoll-70, 2.25 M NaCl, pH 7.4, 25°C, 30 min preincubation, inhibitor:CA molar ratios up to 10 (CAI 0.1-0.5))	Inhibitory activity of single peptides on HIV-1 production ex vivo (HIV-1 strain HXB2; MOI 0.0015, p24 at 72 h, H4 tested up to close to 2 mM)	Peptide concentration required for weak inhibitory activity on HIV-1 production ex vivo (HIV-1 strain HXB2; p24 at 72 h)	Ability of the peptide to penetrate cells (U87-CD4-CXCR4 cells [4])
CSCC[C@H](NC(=O)[C@H](Cc1c[nH]c2ccccc12)NC(=O)[C@H](C)NC(=O)[C@H](CCCCN)NC(=O)[C@@H](NC(=O)[C@H](CO)NC(=O)[C@H](CO)NC(=O)[C@H](C)NC(=O)[C@H](C)NC(=O)[C@H](CO)NC(=O)[C@H](CCC(=O)O)NC(=O)[C@@H](N)CO)C(C)C)C(=O)N[C@H](C(=O)N[C@@H](CCC(=O)O)C(=O)N[C@H](C(=O)N[C@@H](CC(C)C)C(=O)N[C@@H](CC(C)C)C(=O)N[C@H](C(=O)N[C@@H](C)C(=O)N[C@@H](CC(N)=O)C(=O)N[C@H](C(=O)N[C@@H](CO)C(=O)N[C@@H](CO)C(N)=O)[C@@H](C)O)C(C)C)[C@@H](C)O)[C@@H](C)O [CAC1M] (H-SESAASSVKAWMTETLLVANTSS-NH2)	≥ 200 µM	8 ± 1 µM	~30%	about 20%	had been achieved	–	–	–	–
ITFEDLLDYYGP [CAI]	–	–	–	–	had been achieved	very efficient	at most a weak inhibitory activity	> 1 mM	unable to penetrate cells
CSCC[C@H](NC(=O)[C@H](Cc1c[nH]c2ccccc12)NC(=O)[C@H](C)NC(=O)[C@H](CCCCN)NC(=O)[C@@H](NC(=O)[C@H](CO)NC(=O)[C@H](CO)NC(=O)[C@H](CO)NC(=O)[C@H](C)NC(=O)[C@H](CO)NC(=O)[C@@H](N)CCC(=O)O)C(C)C)C(=O)N[C@H](C(=O)N[C@@H](CCC(=O)O)C(=O)N[C@H](C(=O)N[C@@H](CC(C)C)C(=O)N[C@@H](CC(C)C)C(=O)N[C@H](C(=O)N[C@@H](CCC(N)=O)C(=O)N[C@@H](CC(N)=O)C(=O)N[C@@H](C)C(N)=O)C(C)C)[C@@H](C)O)[C@@H](C)O [CAC1C] (H-ESASSSVKAWMTETLLVQNA-NH2)	≥ 200 µM	19 ± 8 µM	–	–	–	–	–	–	–
